Laboratory results reported in US20030224942A1, “Alkylamino-1,3,5-triazines, processes for their preparation and their use as herbicides and plant growth regulators” (priority 2001, published 2003).

Assays:
[1] = system: Chenopodium spp., Papaver spp., Polygonum spp., Veronica spp. or Viola spp.; test: Post-emergence effect on weeds (greenhouse pot test, visual scoring); type: in vivo, monocotyledonous and dicotyledonous weeds; conditions: treated at three-leaf stage; visual scoring after about 3 to 4 weeks; application rate of 0.5 kg and less of active substance per hectare
[2] = system: Cyperus spp., Echinochloa spp., Digitaria spp., Sagitaria spp. and Scirpus spp.; test: Action on harmful plants in rice (paddy rice conditions, visual scoring); type: in vivo, typical rice weeds (gramineous and broad-leaved); conditions: applied into the dammed water, visual scoring about three weeks after application
Description: Transplanted and sown rice and also typical rice weeds (gramineous and broad-leaved) are cultivated in closed plastic pots in a greenhouse to the three-leaf stage (Echinochloa crus-galli 1.5-leaf) under paddy rice conditions (dammed height of water: 2-3 cm). This is followed by treatment with the compounds according to the invention. […] After this treatment, the test plants are set up in a greenhouse under optimum growth conditions and are maintained in this way throughout the test period.

C#Cc1ccc(CNc2nc(N)nc(C(C)(C)F)n2)cc1 [Product P16.1580]
herbicidal activity post-emergence against harmful plants [1]: very good herbicidal activity
herbicidal activity against harmful plants which are typical for rice crops [2]: very good herbicidal activity

CC#Cc1c(F)cc(CNc2nc(C)nc(N)n2)cc1F [Product P1.428]
herbicidal activity post-emergence against harmful plants [1]: very good herbicidal activity
herbicidal activity against harmful plants which are typical for rice crops [2]: very good herbicidal activity

CCc1nc(N)nc(NC(C)c2cccc(C(F)=C(F)F)c2)n1 (centres unmarked) [Product P7.1567]
herbicidal activity post-emergence against harmful plants [1]: very good herbicidal activity
herbicidal activity against harmful plants which are typical for rice crops [2]: very good herbicidal activity

Cc1nc(N)nc(NCc2cc(F)c(C(F)=C(F)F)c(F)c2)n1 [Product P1.49]
herbicidal activity post-emergence against harmful plants [1]: very good herbicidal activity
herbicidal activity against harmful plants which are typical for rice crops [2]: very good herbicidal activity

CC#Cc1cccc(CNc2nc(N)nc(C(C)C)n2)c1 [Product P11.1582]
herbicidal activity post-emergence against harmful plants [1]: very good herbicidal activity
herbicidal activity against harmful plants which are typical for rice crops [2]: very good herbicidal activity

Cc1nc(N)nc(NC(c2ccc(F)c(C(F)=C(F)F)c2)C2CC2)n1 (centres unmarked) [Product P4.5]
herbicidal activity post-emergence against harmful plants [1]: very good herbicidal activity
herbicidal activity against harmful plants which are typical for rice crops [2]: very good herbicidal activity

CCc1nc(N)nc(NC(c2cccc(C(F)=C(F)F)c2)C2CC2)n1 (centres unmarked) [Product P9.1567]
herbicidal activity post-emergence against harmful plants [1]: very good herbicidal activity
herbicidal activity against harmful plants which are typical for rice crops [2]: very good herbicidal activity

CC(C)c1nc(N)nc(NC(C)c2ccc(F)c(C(F)=C(F)F)c2)n1 (centres unmarked) [Product P12.5]
herbicidal activity post-emergence against harmful plants [1]: very good herbicidal activity
herbicidal activity against harmful plants which are typical for rice crops [2]: very good herbicidal activity

Cc1nc(N)nc(NC(c2ccc(C3CC3)cc2)C2CC2)n1 (centres unmarked) [Product P4.1604]
herbicidal activity post-emergence against harmful plants [1]: very good herbicidal activity
herbicidal activity against harmful plants which are typical for rice crops [2]: very good herbicidal activity

C#Cc1cc(C(Nc2nc(N)nc(CC)n2)C2CC2)ccc1F (centres unmarked) [Product P9.309]
herbicidal activity post-emergence against harmful plants [1]: very good herbicidal activity
herbicidal activity against harmful plants which are typical for rice crops [2]: very good herbicidal activity

C#Cc1ccc(C(Nc2nc(N)nc(C(C)C)n2)C2CC2)cc1 (centres unmarked) [Product P14.1580]
herbicidal activity post-emergence against harmful plants [1]: very good herbicidal activity
herbicidal activity against harmful plants which are typical for rice crops [2]: very good herbicidal activity

C#Cc1cccc(CNc2nc(N)nc(C(F)CC)n2)c1 (centres unmarked) [Product P26.1579]
herbicidal activity post-emergence against harmful plants [1]: very good herbicidal activity
herbicidal activity against harmful plants which are typical for rice crops [2]: very good herbicidal activity

CCc1nc(N)nc(NCc2cccc(C(F)=C(F)F)c2)n1 [Product P6.1567]
herbicidal activity post-emergence against harmful plants [1]: very good herbicidal activity
herbicidal activity against harmful plants which are typical for rice crops [2]: very good herbicidal activity

CC#Cc1cccc(CNc2nc(N)nc(C(F)CC)n2)c1 (centres unmarked) [Product P26.1582]
herbicidal activity post-emergence against harmful plants [1]: very good herbicidal activity
herbicidal activity against harmful plants which are typical for rice crops [2]: very good herbicidal activity

Cc1nc(N)nc(NC(C)c2ccc(F)c(C3CC3)c2)n1 (centres unmarked) [Product P2.916]
herbicidal activity post-emergence against harmful plants [1]: very good herbicidal activity
herbicidal activity against harmful plants which are typical for rice crops [2]: very good herbicidal activity

CC(C)(F)c1nc(N)nc(NC(c2cccc(C3CC3)c2)C2CC2)n1 (centres unmarked) [Product P19.1603]
herbicidal activity post-emergence against harmful plants [1]: very good herbicidal activity
herbicidal activity against harmful plants which are typical for rice crops [2]: very good herbicidal activity

CC#Cc1cccc(C(C)Nc2nc(N)nc(C(C)F)n2)c1 (centres unmarked) [Product P22.1582]
herbicidal activity post-emergence against harmful plants [1]: very good herbicidal activity
herbicidal activity against harmful plants which are typical for rice crops [2]: very good herbicidal activity

CC#Cc1ccc(C(C)Nc2nc(N)nc(C(F)CC)n2)cc1 (centres unmarked) [Product P27.1583]
herbicidal activity post-emergence against harmful plants [1]: very good herbicidal activity
herbicidal activity against harmful plants which are typical for rice crops [2]: very good herbicidal activity

CC#Cc1ccc(C(Nc2nc(N)nc(C(C)C)n2)C2CC2)cc1 (centres unmarked) [Product P14.1583]
herbicidal activity post-emergence against harmful plants [1]: very good herbicidal activity
herbicidal activity against harmful plants which are typical for rice crops [2]: very good herbicidal activity

CC(C)c1nc(N)nc(NC(C)c2ccc(C(F)=C(F)F)cc2)n1 (centres unmarked) [Product P12.1568]
herbicidal activity post-emergence against harmful plants [1]: very good herbicidal activity
herbicidal activity against harmful plants which are typical for rice crops [2]: very good herbicidal activity

C#Cc1c(F)cc(C(C)Nc2nc(N)nc(C(C)(C)F)n2)cc1F (centres unmarked) [Product P17.352]
herbicidal activity post-emergence against harmful plants [1]: very good herbicidal activity
herbicidal activity against harmful plants which are typical for rice crops [2]: very good herbicidal activity

C=C=Cc1c(F)cc(C(C)Nc2nc(N)nc(C(C)(C)F)n2)cc1F (centres unmarked) [Product P17.656]
herbicidal activity post-emergence against harmful plants [1]: very good herbicidal activity
herbicidal activity against harmful plants which are typical for rice crops [2]: very good herbicidal activity

CC#Cc1cc(C(Nc2nc(N)nc(C(C)C)n2)C2CC2)ccc1F (centres unmarked) [Product P14.384]
herbicidal activity post-emergence against harmful plants [1]: very good herbicidal activity
herbicidal activity against harmful plants which are typical for rice crops [2]: very good herbicidal activity

C#Cc1cccc(C(C)Nc2nc(N)nc(CC)n2)c1 (centres unmarked) [Product P7.1579]
herbicidal activity post-emergence against harmful plants [1]: very good herbicidal activity
herbicidal activity against harmful plants which are typical for rice crops [2]: very good herbicidal activity

C#Cc1cc(C(Nc2nc(N)nc(C(C)C)n2)C2CC2)ccc1F (centres unmarked) [Product P14.309]
herbicidal activity post-emergence against harmful plants [1]: very good herbicidal activity
herbicidal activity against harmful plants which are typical for rice crops [2]: very good herbicidal activity

CC(F)c1nc(N)nc(NCc2ccc(C(F)=C(F)F)cc2)n1 (centres unmarked) [Product P21.1568]
herbicidal activity post-emergence against harmful plants [1]: very good herbicidal activity
herbicidal activity against harmful plants which are typical for rice crops [2]: very good herbicidal activity

C#Cc1cc(C#C)cc(C(C)Nc2nc(N)nc(C(C)(C)F)n2)c1 (centres unmarked) [Product P17.369]
herbicidal activity post-emergence against harmful plants [1]: very good herbicidal activity
herbicidal activity against harmful plants which are typical for rice crops [2]: very good herbicidal activity

C#Cc1c(F)cc(CNc2nc(N)nc(C(C)F)n2)cc1F (centres unmarked) [Product P21.352]
herbicidal activity post-emergence against harmful plants [1]: very good herbicidal activity
herbicidal activity against harmful plants which are typical for rice crops [2]: very good herbicidal activity

CC#Cc1ccc(C(C)Nc2nc(N)nc(CC)n2)cc1 (centres unmarked) [Product P7.1583]
herbicidal activity post-emergence against harmful plants [1]: very good herbicidal activity
herbicidal activity against harmful plants which are typical for rice crops [2]: very good herbicidal activity

CCc1nc(N)nc(NC(c2ccc(C3CC3)cc2)C2CC2)n1 (centres unmarked) [Product P9.1604]
herbicidal activity post-emergence against harmful plants [1]: very good herbicidal activity
herbicidal activity against harmful plants which are typical for rice crops [2]: very good herbicidal activity

CC(F)c1nc(N)nc(NC(c2cccc(C3CC3)c2)C2CC2)n1 (centres unmarked) [Product P24.1603]
herbicidal activity post-emergence against harmful plants [1]: very good herbicidal activity
herbicidal activity against harmful plants which are typical for rice crops [2]: very good herbicidal activity
